{"source": "patent US12702689B2", "about": "“Anti-inflammatory compositions, and uses thereof” (P.L. THOMAS & CO., INC., priority 2022, dated 2026)", "key": {"[1]": {"tested_on": "BAL leukocytes and eosinophils", "test": "BAL fluid total and differential cell counts in OVA allergic airway model", "format": "in vivo, BALB/cJ female mice", "conditions": "100 mg/kg AKBA"}, "[2]": {"tested_on": "airway reactivity to acetyl-β-methacholine chloride", "test": "Airway hyperresponsiveness: total respiratory system resistance (Rrs) to methacholine, flexiVent", "format": "in vivo, BALB/cJ female mice", "conditions": "for total respiratory system resistance (Rrs) in response to methacholine: OVA+AKBA mice", "source_text": "Allergic airway phenotype was induced by using an ovalbumin (OVA, hen egg) sensitization and challenge model as previously described with modifications [Beigelman, A. et al. Azithromycin attenuates airway inflammation in a noninfectious mouse model of allergic asthma. Chest 136, 498-506 (2009)]. Briefly (FIG. 1), two groups of mice (OVA control and OVA+AKBA) were sensitized with intraperitoneal ovalbumin plus alum on days 0 and 7, challenged for 3 days (day 14 to day 17) via nebulized OVA at 1% in PBS for 30 mins, and harvested 48 hr after final challenge. Supplementation groups (OVA+AKBA) were given 100 mg/kg of water soluble AKBA (pH 7) (PLT Health Solutions, Morristown, NJ, US) in autoclaved mouse water, via gavage, every other day for 10 days and then every day for the remainder of the experiment (9 days). OVA control and naïve mouse continued to receive normal autoclaved mouse water. Mice were weighted at the beginning and end of the experiment. Experiments involving AKBA were conducted twice, with the first group containing 5 mice per group and the second containing 15 mice per group (5 per group for naive). Experiment procedures were identical, and results were pooled for n=20 (n=5 for naive). Animal protocol 102063-0522 was approved by the University of Connecticut Health IACUC board.\nAirway reactivity was assessed based on total respiratory system resistance (Rrs) response to increasing doses (0-100 mg/ml) of acetyl-β-methacholine chloride (Sigma-Aldrich, St. Louis, MO). Mice were […] (150 mg/kg ketamine and 10 mg/kg xylazine), underwent tracheostomies and were mechanically ventilated using the flexiVent system (SCIREQ, Montreal, CA). Airway reactivity was determined by assessing forced oscillatory mechanics every 10 s for 4 min following each methacholine challenge."}}, "data": [{"smiles": "CC(=O)O[C@@H]1CC[C@@]2(C)[C@@H](CC[C@]3(C)[C@@H]2C(=O)C=C2[C@@H]4[C@@H](C)[C@H](C)CC[C@]4(C)CC[C@]23C)[C@@]1(C)C(=O)O", "note": "[AKBA, 3-O-acetyl-11-keto-b-boswellic acid]", "values": [{"measurement": "BAL total leukocyte counts lower versus OVA control group", "setting": "[1]; Mann-Whitney p=0.0002", "result": 46.69, "unit": "%"}, {"measurement": "BAL total leukocyte counts higher than naïve control", "setting": "[1]; Mann-Whitney p=0.0212", "result": 60.38, "unit": "%"}, {"measurement": "percent eosinophil in BAL", "setting": "[1]; OVA+AKBA mice", "result": 31.4, "unit": "%"}, {"measurement": "absolute number of eosinophils in BAL", "setting": "[1]; OVA+AKBA mice, mean±SD", "result": "17317.95±5552.67", "unit": "eosinophil/mL"}, {"measurement": "total respiratory system resistance (Rrs) in response to methacholine", "setting": "[2]; methacholine 12.5 mg, p=0.02 vs OVA control", "result": "2.38±0.55"}, {"measurement": "total respiratory system resistance (Rrs) in response to methacholine", "setting": "[2]; methacholine 25 mg, p=0.04 vs OVA control", "result": "3.56±1.25"}, {"measurement": "difference in Rrs between OVA control and OVA+AKBA", "setting": "[2]; higher methacholine concentrations (above 25 mg)", "result": "No significant difference"}, {"measurement": "difference in Rrs between all three groups", "setting": "[2]; methacholine 0 mg/mL, ANOVA p=0.341", "result": "No significant difference"}]}]}
